# Measured values taken from PMC8447932 (Chemical Science, 2021).
# Tested on: spontaneously hypertensive (SHR) male rats
# Test: Blood pressure in SHR rats after single PO administration
# Format: in vivo, rat
# Settings: 3 mg kg−1 per os once
smiles,measurement,setting,value
"COc1cc2nc(N3CCN(C(=O)C4CCCO4)CC3)nc(N)c2cc1OC (centres unmarked) [compound 74, terazosin]",systolic BP lowering effect in comparison with the vehicle at 120 min,120 min time point,no statistically significant activity
same,systolic BP decrease in comparison with corresponding vehicle groups,after 15 min and 60 min of treatment,significant systolic BP decrease
